Among the data in PubChem BioAssay (NCI) are TGI values, retold here.

Experiment in all cases: DTP human tumour cell line panel, 48 h
In experiment [1] the test system is DLD-1 colon.
Experiment [2] concerns DMS 114 small cell lung.
The test system of experiment [3] is DMS 273 small cell lung.
Experiment [4] has as its system HOP-18 NSCLC.
In experiment [5] the test system is HOP-62 NSCLC.
The subject of experiment [6] is HOP-92 NSCLC.
Experiment [7] concerns K-562 leukemia.
In experiment [8] the test system is KM20L2 colon.
For experiment [9], the system named is LXFL 529 NSCLC.
Experiment [10] concerns M19-MEL melanoma.
In experiment [11] the test system is RPMI-8226 leukemia.
The subject of experiment [12] is RXF-631 renal.
Experiment [13] has as its system SN12C renal.
Experiment [14] concerns XF 498 CNS.
Experiment [15] relates to SNB-78 CNS.

Molecules are shown by their SMILES.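 Grown in 96-well plates, cells were treated for 48 hours with each compound at five concentrations. Insufficient inhibition: endpoint recorded as highest concentration tested. At the TGI there is no net growth.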

What is called TGI is the concentration giving total growth inhibition. Consider `COC(=O)C(=O)C(C(=O)OC)C(=O)C(=O)Nc1cc(Cl)c(Cl)cc1Cl` (centres undefined), for which the total growth inhibition concentration (TGI) was more than 100 µM in experiment [1]; 30.8 µM in experiment [2]; more than 100 µM in experiment [3]; more than 100 µM in experiment [4]; more than 100 µM in experiment [5]; more than 100 µM in experiment [6]. Further, the TGI is more than 100 µM in experiment [7]; more than 100 µM in experiment [8]; more than 100 µM in [9]; more than 100 µM in experiment [10]; 60.3 µM in experiment [11]; more than 100 µM in experiment [12]. Also, the TGI in experiment [13] and in [14] was more than 100 µM throughout.

For the compound `Nc1ncnc2c1ncn2C1CC(OC2CCCCO2)C(CO)O1` (centres undefined), the total growth inhibition concentration (TGI) in experiment [1], in [2], in experiment [3], in [4], in experiment [5] and in experiment [6] was more than 100 µM in each case. For the same compound, the TGI in experiment [7], in experiment [8], in experiment [9], in experiment [10], in experiment [11] and in experiment [13] was more than 100 µM throughout. Further, the total growth inhibition concentration (TGI) in [15] and in [14] was more than 100 µM throughout.

For the compound `Cc1cc(=O)[nH]c(NNC(C#N)c2ccco2)n1` (centres undefined), the TGI in [1], in [2], in experiment [3], in [4], in [5] and in [6] was more than 100 µM each time. Besides, the TGI in experiment [7], in [8], in experiment [9], in experiment [10], in experiment [11] and in experiment [13] was more than 100 µM in each case. In addition, in experiment [15], the concentration for total growth inhibition (TGI) is more than 100 µM.

On to `O=C1NC2C(CCO)CC=C[C@H]2c2cc3c(cc21)OCO3` (some centres undefined), for which the total growth inhibition concentration (TGI) in experiment [1], in experiment [2], in experiment [3], in experiment [5], in [7] and in experiment [8] was more than 100 µM each time. Further, the total growth inhibition concentration (TGI) in experiment [9], in [10], in experiment [11], in [13] and in experiment [15] was more than 100 µM each time.

`C/C(=N/NC(N)=S)C(CN(C)C)C(C1=C(O)c2ccccc2OC1)c1ccccc1` (centres undefined): the total growth inhibition concentration (TGI) in experiment [1], in experiment [2], in [3], in experiment [4], in [5] and in experiment [7] was more than 100 µM throughout. Further, the TGI in experiment [8], in experiment [9], in experiment [10], in [11], in [13] and in experiment [15] was more than 100 µM each time. Besides, in [14], the concentration for total growth inhibition (TGI) was more than 100 µM.

Turning to `COc1ccc(C2S/C(=C\c3ccccc3)C(=O)N2NC(=O)Cc2ccccc2)cc1` (centres undefined), the TGI in experiment [1], in [3], in experiment [4], in [5], in experiment [6] and in [7] was more than 100 µM each time. Besides, the concentration for total growth inhibition (TGI) in [9], in [10], in experiment [11] and in experiment [13] was more than 100 µM in each case.

`CN1N=C2c3ccccc3CC[C@H]2C1c1cccc(O)c1` (some centres undefined): the TGI in experiment [1], in experiment [2], in [3], in experiment [5], in [6] and in experiment [7] was more than 100 µM each time. Moreover, the TGI in [8], in experiment [9], in experiment [10], in experiment [11], in [13] and in experiment [14] was more than 100 µM each time.

Consider `COC(=O)N/N=C(/Cc1occc(=O)c1O)C(=O)Nc1ccc([N+](=O)[O-])cc1[N+](=O)[O-]`, for which the TGI in [1], in [2], in [3], in experiment [4], in experiment [5] and in [6] was more than 100 µM throughout. Besides, the total growth inhibition concentration (TGI) in experiment [7], in experiment [8], in experiment [9], in experiment [10], in experiment [11] and in experiment [13] was more than 100 µM throughout. Also, the TGI in experiment [15] and in experiment [14] was more than 100 µM in each case.

Regarding `O=C(N/N=C(\c1nc2ccc(Cl)cc2[nH]c1=O)C(O)c1ccccc1Cl)c1ccncc1` (centres undefined), the total growth inhibition concentration (TGI) in experiment [1], in experiment [2], in experiment [3], in experiment [4], in experiment [6] and in experiment [7] was more than 100 µM in each case. The TGI in experiment [8], in experiment [9], in [10] and in experiment [12] was more than 100 µM in each case.

As to `C#Cc1cc(CN(CC(=O)OC(C)(C)C)CC(=O)OC(C)(C)C)nc(CN(CC(=O)OC(C)(C)C)CC(=O)OC(C)(C)C)c1`, the TGI in experiment [2] turned out to be 11.5 µM; in [3], 28.6 µM; in experiment [5], 24.1 µM; in [7], 26.6 µM; in experiment [8], 69.7 µM; in experiment [9], 11.4 µM. The total growth inhibition concentration (TGI) in experiment [10] was 83.2 µM; in experiment [11] it was 6.25 µM; in experiment [12], 38.7 µM; in [13], more than 100 µM; in experiment [15], 70.4 µM; in [14], 36.6 µM.

Take `CCCc1c(C(=O)OCC)[nH]c(C(=O)CCC(=O)c2[nH]c(C(=O)OCC)c(CCC)c2C(=O)OCC)c1C(=O)OCC`: the total growth inhibition concentration (TGI) in experiment [1], in [2], in experiment [3], in experiment [4], in experiment [6] and in [7] was more than 100 µM in each case. Moreover, the TGI in experiment [8], in experiment [9], in experiment [10], in [11], in [13] and in experiment [15] was more than 100 µM in each case. The TGI in experiment [14] was more than 100 µM.

Regarding `CCN(CC)CCCCC1CCN(CC(=O)N2c3cc(Cl)ccc3NC(=O)CC2C)CC1` (centres undefined), the TGI in experiment [1], in experiment [3], in experiment [4], in experiment [5], in experiment [6] and in [7] was more than 100 µM each time. Moreover, the TGI in [8], in experiment [9], in [10], in [11] and in experiment [13] was more than 100 µM in each case.

Consider `Cc1ccc(C2SCC(=O)N2NC(=O)c2ccncc2)s1` (centres undefined), for which the total growth inhibition concentration (TGI) in [5], in experiment [6], in experiment [7], in experiment [11] and in experiment [13] was more than 100 µM throughout.

Regarding `CC(C)NC(=O)OCc1c(COC(=O)NC(C)C)c(-c2ccc[n+](COC(=O)C(C)(C)C)c2)n2c1CCC2`, the total growth inhibition concentration (TGI) in experiment [5], in experiment [6], in experiment [7], in experiment [11] and in experiment [13] was more than 100 µM each time.

Consider `CC(C)N1[C@@H]2CCCC[C@H]2N(C(C)C)P1(=O)C(=O)/C=C/c1ccccc1`, for which the TGI in experiment [5] is 13.7 µM; in [6], 6.53 µM; in [7], more than 100 µM; in experiment [11] it was 9.32 µM; in [13] it was 3.96 µM.

`C#CCCOC(=O)c1ccccc1OC(C)=O`: the concentration for total growth inhibition (TGI) in [5], in experiment [6], in experiment [7], in [11] and in experiment [13] was more than 100 µM each time.

Turning to `CCOC(=O)c1cc(C#N)[nH]c1-c1ccsc1`, the TGI in [5] was more than 100 µM; in experiment [6] it was more than 100 µM; in experiment [7], 93 µM; in [11], 65.6 µM; in experiment [13], more than 100 µM.

Regarding `N#CCc1nc(-c2cc3c(ccc4ccccc43)oc2=O)cs1`, the TGI in experiment [5] was 32.2 µM; in experiment [6], 44.5 µM; in [7], more than 100 µM; in experiment [11] it was more than 100 µM; in experiment [13], more than 100 µM.

As for `c1cc(C[S+]2CCCC2)sc1C[S+]1CCCC1`, the total growth inhibition concentration (TGI) in experiment [5], in [6], in experiment [7], in [11] and in [13] was more than 100 µM throughout.

Consider `Cn1c(=O)cc(N2CCCC2)[nH]c1=O`, for which the concentration for total growth inhibition (TGI) in experiment [5], in experiment [6], in experiment [7], in experiment [11] and in [13] was more than 100 µM throughout.

For the compound `O=C(OCc1ccccc1)N1CCCc2c(n(S(=O)(=O)c3ccccc3)c3ccccc23)C1`, the total growth inhibition concentration (TGI) in experiment [5], in experiment [6], in experiment [7], in experiment [11] and in experiment [13] was more than 100 µM in each case.

Regarding `COC(=O)[C@H](COC(=O)/C=C/c1ccc(OC(C)=O)c(OC(C)=O)c1)NC(=O)/C=C/c1ccc(OC(C)=O)c(OC(C)=O)c1`, the total growth inhibition concentration (TGI) in [5] was 34.3 µM; in experiment [6] it was 49.3 µM; in experiment [7] it was more than 100 µM; in experiment [11], more than 100 µM; in experiment [13], 36.4 µM.

For the compound `COC(=O)/C=C1/OC(c2ccc(C)cc2)=C(Cl)C1=O`, the total growth inhibition concentration (TGI) came to 38.8 µM in experiment [5]; 34.1 µM in experiment [6]; 19 µM in [7]; 14.4 µM in experiment [11]; 38 µM in [13].

Take `O=c1cc(-c2cccc(OCc3ccccc3)c2)[nH]c2cc3c(cc12)OCO3`: the total growth inhibition concentration (TGI) in [5] was 9.98 µM; in experiment [6], 18.6 µM; in experiment [7] it was more than 100 µM; in experiment [11], 0.766 µM; in experiment [13], more than 22.1 µM.

For the compound `CCOP(=O)(OCC)C(F)(F)Cc1cnc(C)c2c1COC(C)(C)O2`, the TGI in experiment [5], in experiment [6], in experiment [7], in experiment [11] and in experiment [13] was more than 10 µM each time.

Turning to `CCOC(=O)Nn1c(C)cc(C(=O)OC)c1C`, the TGI in experiment [1], in [2], in [3], in experiment [5], in experiment [7] and in experiment [8] was more than 100 µM throughout. Moreover, the TGI in [9], in experiment [10], in experiment [11], in [13], in experiment [15] and in [14] was more than 100 µM throughout.

As to `COc1ccc(C)cc1Nc1nnc(-c2ccc(N)cc2)s1`, the TGI in experiment [5] is more than 100 µM; in experiment [6] it was more than 100 µM; in [7] it was more than 100 µM; in experiment [11] it was 98.4 µM; in [13] it was more than 100 µM.

Consider `C=CCC1C(=O)Nc2cccc3ncn(c23)C1=O` (centres undefined), for which the total growth inhibition concentration (TGI) in [5], in experiment [6], in experiment [7], in experiment [11] and in [13] was more than 100 µM throughout.

In the case of `O=C1COCCN1C(=O)c1ccccc1Cl`, the total growth inhibition concentration (TGI) in experiment [5], in experiment [6], in [7], in [11] and in [13] was more than 100 µM throughout.

On to `O=C(Nc1ccc(Cl)cc1)NS(=O)(=O)c1c(-c2ccccc2)oc2ccccc2c1=O`, for which the TGI in experiment [5], in experiment [6], in [7], in experiment [11] and in [13] was more than 100 µM throughout.

In the case of `COCN1C(=O)[C@@H]2CCCN2C(=O)c2ccc([N+](=O)[O-])cc21`, the TGI in [5], in experiment [6], in experiment [7], in experiment [11] and in experiment [13] was more than 100 µM each time.
